Results reported in patent US8106042B2 (priority 2008, dated 2012).

Molecular target: α7-subtype of nicotinic receptors (Mus musculus, UniProt P49582)
Assay: in vivo
Set-up: species or system mice
Conditions: read-out: Inhibition of 3H-α-Bungarotoxine Binding EC50

α7-subtype of nicotinic receptors, sequence (P49582 23-502): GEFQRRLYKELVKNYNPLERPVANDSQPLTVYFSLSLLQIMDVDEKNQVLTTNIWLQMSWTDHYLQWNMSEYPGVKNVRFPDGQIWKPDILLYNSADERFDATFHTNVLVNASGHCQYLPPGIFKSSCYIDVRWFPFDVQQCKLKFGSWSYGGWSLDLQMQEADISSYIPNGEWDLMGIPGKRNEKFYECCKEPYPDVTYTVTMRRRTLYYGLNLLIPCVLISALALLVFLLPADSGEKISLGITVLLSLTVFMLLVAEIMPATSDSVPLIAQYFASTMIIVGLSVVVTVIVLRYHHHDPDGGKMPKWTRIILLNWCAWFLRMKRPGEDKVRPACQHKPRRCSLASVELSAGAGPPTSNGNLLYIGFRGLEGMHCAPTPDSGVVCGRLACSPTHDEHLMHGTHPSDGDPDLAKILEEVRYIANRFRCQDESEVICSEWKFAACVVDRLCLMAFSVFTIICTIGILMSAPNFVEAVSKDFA

SMILES: [O-][N+]12CCC(CC1)N(c1nnc(-c3ccc4c(c3)OCO4)o1)CC2 [Compound 1, 4-(5-Benzo[1,3]-dioxol-5-yl-[1,3,4]oxadiazol-2-yl)-1,4-diazabicyclo[3.2.2]-nonane-1-oxide]
- ED50: 1.5 mg/kg
